Earlier results in patent publication US5028692A, “Gastrin releasing peptide antagonist” (Merck & Co., Inc., priority 1989, dated 1991).
Peptide text beside a SMILES is read from it.

What was measured:
[1] = system: SCLC cell lines
[2] = system: bombesin-stimulated growth

Compound	inhibition of clonal and mass culture growth [1]	inhibition of bombesin-stimulated growth [2]
CSCC[C@H](NC(=O)[C@H](CC(C)C)NC(=O)CNC(=O)[C@H](Cc1ccc(O)cc1)NC(=O)[C@H](Cc1ccccc1)NC(=O)[C@H](CCCCN)NC(=O)[C@H](CC(N)=O)NC(=O)[C@@H]1CCCN1C(=O)[C@H](CC(=O)O)NC(=O)[C@H](C)NC(=O)[C@@H]1CCC(=O)N1)C(N)=O [physalaemin] (HELM PEPTIDE1{[Glp].A.D.P.N.K.F.Y.G.L.M.[am]}$$$$V2.0)	inhibits the clonal and mass culture growth of SCLC cell lines at picomolar concentrations	–
[Leu^14 -.PSI.-CH2 NH-Leu^13 ] bombesin	–	potent inhibitor
